Experimental data taken from patent US6864283B2, “Oxy-and amino-substituted tetrahydrofuryl derivatives with antitumour activity” (Pharma Mar, S.A., priority 2000, dated 2005).
Converted amounts (≈) assume the structure as drawn.

How the values were obtained:
Format in all cases: cell-based
P388 leukemia = test: IC50 against P388 leukemia cells; settings: Mus musculus
A459 human lung = test: IC50 against A459 human lung cells
MEL28 melanoma = test: IC50 against MEL28 melanoma cells; settings: Homo sapiens, SK-MEL-28
HT29 human colon = test: IC50 against HT29 human colon cells; settings: HT-29

IC50 (P388 leukemia): 0.01 µg/mL (≈ 0.0334 µM)
IC50 (A459 human lung): 0.01 µg/mL (≈ 0.0334 µM)
IC50 (MEL28 melanoma): 0.01 µg/mL (≈ 0.0334 µM)
IC50 (HT29 human colon): 0.01 µg/mL (≈ 0.0334 µM)
SMILES: CCCCCCCCCCCCCC[C@@H]1OC[C@H](N)[C@@H]1O [IK-8-73-4]
